Consider three compounds from ChEMBL document CHEMBL4368855, “Novel tricyclic glycal-based TRIB1 inducers that reprogram LDL metabolism in hepatic cells” (Medchemcomm, 2018).

Data set [1] has as its system HepG2. The data set can be described thus: Down regulation of PCSK9 gene expression in human HepG2 cells measured after 24 hrs by qRT-PCR analysis. The following applies: HepG2, 24 h. Type of data set: functional, cell-based. In general terms: In qPCR the cycle at which signal appears reflects the starting amount.
The test system of data set [2] is HepG2. The data set can be described thus: Up regulation of LDLR gene expression in human HepG2 cells measured after 6 hrs by qRT-PCR analysis. The following applies: HepG2, 6 h. Format: functional, cell-based.
The subject of data set [3] is HepG2. As to the kind of experiment: Up regulation of LDLR gene expression in human HepG2 cells measured after 6 hrs by qRT-PCR analysis relative to control. Format: functional.
Data set [4] relates to HepG2. As to the kind of experiment: Up regulation of TRIB1 gene expression in human HepG2 cells measured after 6 hrs by qRT-PCR analysis. Format: functional, cell-based. The following applies: HepG2, 6 h.
Data set [5] in a line: Stability in mouse liver microsomes assessed as parent compound remaining at 1 uM incubated for 60 mins under shaking condition by UPLC/MS analysis. Format: ADME, Microsome. To be noted: read-out: Stability.
The nature of data set [6]: Solubility of the compound in 1% DMSO/phosphate buffered saline at pH 7.4 incubated for 18 hrs under shaking condition by UPLC/MS analysis. Type of data set: physicochemical.
Data set [7] has as its system HepG2. The data set can be described thus: Up regulation of TRIB1 gene expression in human HepG2 cells measured after 6 hrs by qRT-PCR analysis relative to control. Type of data set: functional.
The test system of data set [8] is HepG2. The data set can be described thus: Induction of TRIB1 expression in human HepG2 cells measured after overnight incubation by qRT-PCR analysis. Format: functional, cell-based.

SMILES strings stand for the structures. pEC50: −log10 of the molar value. ≈ marks a conversion by molar mass, not a printed value. Bounds are passed on as bounds.

As usually defined, the pEC50 is −log10 of the EC50, conventionally taken in molar units. Lower therefore signals a large EC50. As a reminder, the solubility (kinetic) is the concentration staying in solution when a stock, usually in DMSO, is diluted into the medium.

Regarding `CN1C(=O)c2cc(NC(=O)c3ccc(C(F)(F)F)cc3)ccc2OC[C@@H]2O[C@H](CNC(=O)CC(C)(C)C)CC[C@@H]21`, the pEC50 in data set [1] is 7.00; in data set [2], 6.30; in data set [4], 6.14. For the same compound, the max activation in data set [3] was determined as 1.9; in data set [7] it was 6.6. The remaining at 1 h, 1 µM in data set [5] came out at 0%. For the same compound, the kinetic solubility at 18 h in data set [6] is 6 µM (≈ 3.37 µg/mL).
As for `CN1C(=O)c2cc(NC(=O)c3ccc(C(F)(F)F)cc3)ccc2OC[C@H]2O[C@@H](CC(=O)NC3Cc4ccccc4C3)CC[C@@H]21`, the pEC50 in data set [8] is less than 4.60.
Take `CN1C(=O)c2cc(NC(=O)c3ccc(C(F)(F)F)cc3)ccc2OC[C@@H]2O[C@H](CNC(=O)[C@@H]3CCCO3)CC[C@@H]21`: the pEC50 is 7.60 in data set [1], 5.61 in data set [2] and 5.96 in data set [4]. In addition, the results for the max activation in data set [3] and in data set [7] were 4.3 and 3.7, respectively. In data set [5], the remaining at 1 h, 1 µM is 54%. Besides, the kinetic solubility at 18 h in data set [6] stood at 90 µM (≈ 50.5 µg/mL).
